The values that follow are results of earlier work, collected in patent publication US20090209641A1, “PHARMACEUTICAL COMPOSITION FOR ADMINISTRATION BY INJECTION” (priority 2006, published 2009).

With `N.N.O=C([O-])C1(C(=O)[O-])CCC1.[Pt+2]` [carboplatinum], the solubility in water was 17 mg/mL.
